Where two headings read alike, the source gives them in different places.
Key:
5HT2B receptors = target: T1, 5HT2B receptors (Homo sapiens, UniProt P41595); assay: Human 5-HT2B functional assay in CHO-K1 cells (calcium flux, FLIPR); type: cell-based
T1 construct: expressed in transfected cells; host or cells: CHO-K1 cells
Outline: (§1)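 EC50 came from a 4-parameter logistic fit, with Emax expressed relative to serotonin, of intracellular Ca2+ rises read on FLIPR at 480/530 nm, 25° C, over 3 min. Compounds ran from 10 μM in six 1:10 steps (0.2% DMSO) on serum-starved CHO-K1 transfectants pre-loaded 60 min with Ca4 dye and probenecid.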

5HT2C receptors = target: T2, 5HT2C receptors (Homo sapiens, UniProt P28335); assay: Human 5-HT2C functional assay in CHO-K1 cells (calcium flux, FLIPR); type: cell-based; set-up: expressed in transfected cells; host or cells: CHO-K1 cells; conditions: for Emax / Emax (%), 5-HT2c Agonist Activity: percentage relative to the effect of serotonin
T2 sequence (P28335 33-458): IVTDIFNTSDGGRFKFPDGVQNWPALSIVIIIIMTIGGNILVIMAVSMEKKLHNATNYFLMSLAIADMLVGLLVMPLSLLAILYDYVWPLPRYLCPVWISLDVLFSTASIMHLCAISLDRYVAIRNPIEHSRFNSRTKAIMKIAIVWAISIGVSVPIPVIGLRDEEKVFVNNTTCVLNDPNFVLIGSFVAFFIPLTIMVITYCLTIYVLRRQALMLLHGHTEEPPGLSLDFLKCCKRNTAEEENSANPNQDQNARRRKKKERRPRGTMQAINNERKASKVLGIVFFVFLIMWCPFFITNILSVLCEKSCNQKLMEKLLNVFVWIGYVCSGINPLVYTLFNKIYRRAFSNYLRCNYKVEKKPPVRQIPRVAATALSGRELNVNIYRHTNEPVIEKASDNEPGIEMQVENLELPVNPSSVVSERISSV
Outline: as §1

[1] = CHO-K1 cells over-expressing 5HT2B, calcium flux, read-out: EC50 (μM), 5-HT2B Agonist Activity
[2] = CHO-K1 cells, percentage relative to the effect of serotonin, read-out: Emax (%), 5-HT2B Agonist Activity
[3] = CHO-K1 cells over-expressing 5HT2C, calcium flux, read-out: EC50 (μM), 5-HT2c Agonist Activity
[4] = CHO-K1 cells, read-out: Emax (%), 5-HT2c Agonist Activity
[5] = CHO-K1, read-out: Emax (%), 5-HT2c Agonist Activity, CHO-K1 cells
[6] = CHO-K1, read-out: Emax (%), 5-HT2B Agonist Activity

T1 sequence (P41595 whole entry): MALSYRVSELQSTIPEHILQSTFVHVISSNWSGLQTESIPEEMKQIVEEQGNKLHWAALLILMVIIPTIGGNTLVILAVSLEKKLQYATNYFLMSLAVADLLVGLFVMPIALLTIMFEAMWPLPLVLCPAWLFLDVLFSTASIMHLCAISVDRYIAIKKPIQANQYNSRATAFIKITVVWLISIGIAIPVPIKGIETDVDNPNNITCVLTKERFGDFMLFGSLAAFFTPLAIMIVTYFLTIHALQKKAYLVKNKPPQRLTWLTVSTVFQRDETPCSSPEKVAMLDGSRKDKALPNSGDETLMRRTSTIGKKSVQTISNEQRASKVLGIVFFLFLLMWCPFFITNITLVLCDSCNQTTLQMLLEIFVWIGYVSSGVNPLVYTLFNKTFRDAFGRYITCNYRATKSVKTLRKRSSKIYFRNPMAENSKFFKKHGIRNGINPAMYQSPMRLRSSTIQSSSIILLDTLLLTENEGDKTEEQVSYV

EC50 (5HT2B receptors; [1]) [µM] | EC50 (5HT2C receptors; [3]) [µM] | Emax (5HT2C receptors; [4]) [%] | Compound | EC50 (5HT2B receptors) [µM] | EC50 (5HT2C receptors) [µM] | further results
1 | 0.01 | 120 | C[C@@H](Oc1ccc2c(c1)N1CCNCC1CC(=O)N2)c1ccccc1F (stereo partly drawn) [Example 161, 10-[(1R)-1-(2-fluorophenyl)ethoxy]-1,2,3,4,4a,5-hexahydropyrazino[1,2-a][1,5]benzodiazepin-6(7H)-one] | – | – | Emax (5HT2B receptors; [2]): 20%
> 10 | 0.01 | > 120 | Oc1ccccc1-c1ccc2c(c1)N1CCNC[C@@H]1CCO2 [Example 200, 2-[(4aS)-2,3,4,4a,5,6-hexahydro-1H-pyrazino[2,1-d][1,5]benzoxazepin-10-yl]phenol] | – | – | –
– | – | – | CN1CCN2c3cc(Cl)ccc3NC(=O)C[C@H]2C1 [Example 84, (4aS)-10-chloro-3-methyl-1,2,3,4,4a,5-hexahydropyrazino[1,2-a][1,5]benzodiazepin-6(7H)-one] | > 10 | 0.067 | Emax (5HT2C receptors; [5]): 90%
> 10 | 0.0001 | 90 | c1coc(-c2cccc3c2OCC[C@H]2CNCCN32)c1 [Example 251, (4aS)-8-(2-furyl)-2,3,4,4a,5,6-hexahydro-1H-pyrazino[2,1-d][1,5]benzoxazepine] | – | – | –
> 10 | 0.2 | 80 | CCOC(=O)c1ccc2c(c1)N1CCNCC1CC(=O)N2 (stereo not drawn) [Example 50, ethyl 6-oxo-1,2,3,4,4a,5,6,7-octahydropyrazino[1,2-a][1,5]-benzodiazepine-10-carboxylate] | – | – | –
> 10 | 1 | 110 | C[C@@H](Cc1ccccc1)Oc1ccc2c(c1)N1CCNC[C@H]1CC(=O)N2 [Example 167, (4aR)-10-{[(2S)-1-phenylpropan-2-yl]oxy}-1,2,3,4,4a,5-hexahydropyrazino[1,2-a][1,5]benzodiazepin-6(7H)-one] | – | – | –
> 10 | 0.02 | > 120 | O=C1CC2CNCCN2c2cc(-c3cccc(C(F)(F)F)c3)ccc2N1 (stereo not drawn) [Example 90, 10-[3-(trifluoromethyl)phenyl]-1,2,3,4,4a,5-hexahydropyrazino[1,2-a][1,5]benzodiazepin-6(7H)-one] | – | – | –
> 10 | 0.9 | 100 | O=C1CC2CNCCN2c2cc(-c3ccc4ccccc4c3)ccc2N1 (stereo not drawn) [Example 57, 10-(2-naphthyl)-1,2,3,4,4a,5-hexahydropyrazino[1,2-a][1,5]benzodiazepin-6(7H)-one] | – | – | –
– | – | – | COc1ccc2c(c1)OCC[C@H]1CNCCN21 [Example 134, (4aS)-9-methoxy-2,3,4,4a,5,6-hexahydro-1H-pyrazino[2,1-d][1,5]benzoxazepine] | – | – | EC50 (5HT2B receptors; read-out: EC50 (μM), 5-HT2B Agonist Activity, CHO-K1 cells over-expressing 5HT2B, calcium flux): > 10 µM; Emax (%), 5-HT2c Agonist Activity (5HT2C receptors; CHO-K1 cells): 100%; EC50 (5HT2C receptors; read-out: EC50 (μM), 5-HT2c Agonist Activity, CHO-K1 cells over-expressing 5HT2C, calcium flux): 0.05 µM
> 10 | 0.009 | 100 | CC(O)c1ccc(-c2ccc3c(c2)OCC[C@H]2CNCCN32)cc1 (stereo partly drawn) [Example 228, 1-{4-[(4aS)-2,3,4,4a,5,6-hexahydro-1H-pyrazino[2,1-d][1,5]benzoxazepin-9-yl]phenyl}ethanol] | – | – | –
> 10 | 0.02 | > 120 | O=C1CC2CNCCN2c2cc(-c3cccc(OCc4ccccc4)c3)ccc2N1 (stereo not drawn) [Example 95, 10-[3-(benzyloxy)phenyl]-1,2,3,4,4a,5-hexahydropyrazino[1,2-a][1,5]benzodiazepin-6(7H)-one] | – | – | –
> 10 | 0.02 | 100 | c1ccc(-c2cccc3c2OCC[C@H]2CNCCN32)cc1 [Example 223, (4aS)-8-phenyl-2,3,4,4a,5,6-hexahydro-1H-pyrazino[2,1-d][1,5]benzoxazepine] | – | – | –
– | – | – | COc1cccc2c1OCC[C@H]1CNCCN21 [Example 241, (4aS)-8-methoxy-2,3,4,4a,5,6-hexahydro-1H-pyrazino[2,1-d][1,5]benzoxazepine] | > 10 | 0.02 | Emax (5HT2C receptors; [5]): 90%
> 10 | 0.07 | > 120 | Cc1cccc(-c2ccc3c(c2)N2CCNCC2CC(=O)N3)c1 (stereo not drawn) [Example 89, 10-(3-methylphenyl)-1,2,3,4,4a,5-hexahydropyrazino[1,2-a][1,5]benzodiazepin-6(7H)-one] | – | – | –
1 | 0.03 | > 120 | Cc1ccccc1-c1ccc2c(c1)N1CCNC[C@@H]1CCO2 [Example 189, (4aS)-10-(2-methylphenyl)-2,3,4,4a,5,6-hexahydro-1H-pyrazino[2,1-d][1,5]benzoxazepine] | – | – | Emax (5HT2B receptors; [2]): 20%
1 | 0.07 | > 120 | CC(=O)c1ccccc1-c1ccc2c(c1)N1CCNC[C@@H]1CCO2 [Example 197, 1-{2-[(4aS)-2,3,4,4a,5,6-hexahydro-1H-pyrazino[2,1-d][1,5]benzoxazepin-10-yl]phenyl}ethanone] | – | – | Emax (5HT2B receptors; [2]): 15%
– | – | – | [2H]c1ccc2c(c1)N1CCNC[C@@H]1CCO2 [Example 262, (4aS)-(10-^2H)-2,3,4,4a,5,6-hexahydro-1H-pyrazino[2,1-d][1,5]benzoxazepine] | 0.2 | 0.005 | Emax (5HT2B receptors; [6]): 15%; Emax (5HT2C receptors; [5]): 90%
> 10 | 0.6 | 90 | CCN1CCC2CN(C)CCN2c2ccc(Cl)cc21 (stereo not drawn) [Example 82, 9-chloro-7-ethyl-3-methyl-1,2,3,4,4a,5,6,7-octahydropyrazino[1,2-a][1,5]benzodiazepine] | – | – | –
– | – | – | c1cncc(-c2ccc3c(c2)N2CCNC[C@@H]2CCO3)c1 [Example 206, (4aS)-10-(pyridin-3-yl)-2,3,4,4a,5,6-hexahydro-1H-pyrazino[2,1-d][1,5]benzoxazepine] | > 10 | 0.07 | Emax (5HT2C receptors; [5]): > 120%
> 10 | 0.04 | 105 | CS(=O)(=O)c1cccc(-c2cccc3c2OCC[C@H]2CNCCN32)c1 [Example 239, (4aS)-8-[3-(methylsulfonyl)phenyl]-2,3,4,4a,5,6-hexahydro-1H-pyrazino[2,1-d][1,5]benzoxazepine] | – | – | –
– | – | – | Cc1cccc2c1N1CCNCC1CC(=O)N2 (stereo not drawn) [Example 53, 11-methyl-1,2,3,4,4a,5-hexahydropyrazino[1,2-a][1,5]benzodiazepin-6(7H)-one] | 3 | 0.006 | Emax (5HT2B receptors; [6]): 60%; Emax (5HT2C receptors; [5]): > 120%
– | – | – | CN1CCN2c3cccc(F)c3NC(=O)CC2C1 (stereo not drawn) [Example 79, 8-fluoro-3-methyl-1,2,3,4,4a,5-hexahydropyrazino[1,2-a][1,5]benzodiazepin-6(7H)-one] | > 10 | 0.03 | Emax (5HT2C receptors; [5]): 100%
0.9 | 0.06 | > 120 | O=C1CC2CNCCN2c2cc(-c3cnc4ccccc4c3)ccc2N1 (stereo not drawn) [Example 62, 10-(quinolin-3-yl)-1,2,3,4,4a,5-hexahydropyrazino[1,2-a][1,5]benzodiazepin-6(7H)-one] | – | – | Emax (5HT2B receptors; [2]): 60%
– | – | – | COc1ccc2c(c1)OCC[C@H]1CNCCN21 [Example 243, (4aS)-9-methoxy-2,3,4,4a,5,6-hexahydro-1H-pyrazino[2,1-d][1,5]benzoxazepine] | > 10 | 0.05 | Emax (%), 5-HT2c Agonist Activity (5HT2C receptors; CHO-K1 cells): 55%
> 10 | 0.09 | > 120 | O=C1CC2CNCCN2c2cc(-c3cccc4[nH]ccc34)ccc2N1 (stereo not drawn) [Example 68, 10-(1H-indol-4-yl)-1,2,3,4,4a,5-hexahydropyrazino[1,2-a][1,5]benzodiazepin-6(7H)-one] | – | – | –
0.7 | 0.103 | > 120 | C[C@H](Oc1ccc2c(c1)N1CCNCC1CC(=O)N2)c1ccccc1 (stereo partly drawn) [Example 154, 10-[(1S)-1-phenylethoxy]-1,2,3,4,4a,5-hexahydropyrazino[1,2-a][1,5]benzodiazepin-6(7H)-one] | – | – | Emax (5HT2B receptors; [2]): 44%
– | – | – | Fc1cccc2c1OCC[C@@H]1CNCCN21 [Example 270, (4aR)-8-fluoro-2,3,4,4a,5,6-hexahydro-1H-pyrazino[2,1-d][1,5]benzoxazepine] | 0.04 | 0.0009 | Emax (5HT2B receptors; [6]): 80%; Emax (5HT2C receptors; [5]): 90%
> 10 | 0.002 | > 120 | O=C1C[C@H]2CNCCN2c2cc(OCCc3ccccc3Cl)ccc2N1 [Example 172, (4aS)-10-[2-(2-chlorophenyl)ethoxy]-1,2,3,4,4a,5-hexahydropyrazino[1,2-a][1,5]benzodiazepin-6(7H)-one] | – | – | –
– | – | – | Clc1ccc2c(c1)N1CCNC[C@@H]1CCO2 [Example 140, (4aS)-10-chloro-2,3,4,4a,5,6-hexahydro-1H-pyrazino[2,1-d][1,5]-benzoxazepine] | 0.03 | 0.0005 | Emax (5HT2B receptors; [6]): 60%; Emax (5HT2C receptors; [5]): > 120%
